Reference: the supplement of paper PMC4862054

Columns and labels:
Details in all cases: incubation time: 72 h
[1] = test system: HCC1143; assay: drug sensitivity score (DSS), CellTiter-Glo (DSS (AUC-based score)); higher = stronger drug effect (viability inhibition or cytotoxicity); extreme values may be limits of the assay
How it was run: (§1)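 Plates with 384 wells held compound at 5 concentrations in 10-fold steps over a 10,000-fold range specific to each compound. Breast cancer cell lines were added in 20 µl suspension and incubated 72 h, then read for CellTox Green and CellTiter-Glo signals, with each plate normalised to 0.1 % DMSO and a positive kill control. The drug sensitivity score is based on the area under the fitted dose-response curve.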

[2] = test system: HCC1937; assay: as above
How it was run: as §1

[3] = test system: MDA-MB-468; assay: as above
How it was run: as §1

[4] = test system: HCC1599; assay: as above
How it was run: as §1

[5] = test system: MDA-MB-231; assay: as above
How it was run: as §1

[6] = test system: DU-4475; assay: as above
How it was run: as §1

[7] = test system: BT-549; assay: as above
How it was run: as §1

[8] = test system: BT-474; assay: as above
How it was run: as §1

[9] = test system: CAL-85-1; assay: as above
How it was run: as §1

[10] = test system: Hs578T; assay: as above
How it was run: as §1

[11] = test system: MFM-223; assay: as above
How it was run: as §1

[12] = test system: CAL-120; assay: as above
How it was run: as §1

[13] = test system: HCC1143; assay: drug sensitivity score (DSS), CellTox Green (DSS (AUC-based score)); higher = stronger drug effect (viability inhibition or cytotoxicity); extreme values may be limits of the assay
How it was run: as §1

[14] = test system: HCC1937; assay: as above
How it was run: as §1

[15] = test system: MDA-MB-453; assay: as above
How it was run: as §1

[16] = test system: MDA-MB-436; assay: as above
How it was run: as §1

[17] = test system: MDA-MB-231; assay: as above
How it was run: as §1

[18] = test system: DU-4475; assay: as above
How it was run: as §1

[19] = test system: MCF-10A; assay: as above
How it was run: as §1

[20] = test system: BT-549; assay: as above
How it was run: as §1

[21] = test system: CAL-51; assay: as above
How it was run: as §1

[22] = test system: BT-474; assay: as above
How it was run: as §1

[23] = test system: CAL-85-1; assay: as above
How it was run: as §1

[24] = test system: Hs578T; assay: as above
How it was run: as §1

[25] = test system: HDQ-P1; assay: as above
How it was run: as §1

[26] = test system: CAL-148; assay: as above
How it was run: as §1

[27] = test system: MFM-223; assay: as above
How it was run: as §1

SMILES	drug sensitivity score [1]	drug sensitivity score [2]	drug sensitivity score [3]	drug sensitivity score [4]	drug sensitivity score [5]	drug sensitivity score [6]	drug sensitivity score [7]	drug sensitivity score [8]	drug sensitivity score [9]	drug sensitivity score [10]	drug sensitivity score [11]	drug sensitivity score [12]	drug sensitivity score [13]	drug sensitivity score [14]	drug sensitivity score [15]	drug sensitivity score [16]	drug sensitivity score [17]	drug sensitivity score [18]	drug sensitivity score [19]	drug sensitivity score [20]	drug sensitivity score [21]	drug sensitivity score [22]	drug sensitivity score [23]	drug sensitivity score [24]	drug sensitivity score [25]	drug sensitivity score [26]	drug sensitivity score [27]
COC(=O)c1ccc2c(c1)NC(=O)/C2=C(\Nc1ccc(N(C)C(=O)CN2CCN(C)CC2)cc1)c1ccccc1 [Nintedanib]	2.02	3.95	5.28	0	6.66	0	8.24	5.02	0	1.11	7.98	3.62	0	7.85	0	1.22	7.47	0	1.89	2.06	6.03	6.74	0	0	0	0	0
Nc1cc(C(F)(F)F)c(-c2cc(N3CCOCC3)nc(N3CCOCC3)n2)cn1 [Buparlisib]	1.75	3.29	6.3	0	3	1.54	7.05	3.23	0	1.39	10	2.39	0	0	0	0	7.38	0	0.18	1.91	6.04	3.4	0	2.89	0	0	0
COc1cc2c(NC3CCN(C(C)C)CC3)nc(N3CCC(F)(F)CC3)nc2cc1OCCCN1CCCC1 [UNC0642]	0	1.97	7.75	0	3.72	0	0	1.75	5.86	0	3.31	0	0	1.95	1.18	11	7.71	0	2.29	0	0	6.46	6.85	0	0	2.77	0
CNC(=O)c1cc(Oc2ccc(NC(=O)Nc3ccc(Cl)c(C(F)(F)F)c3)c(F)c2)ccn1 [Regorafenib]	0	1.28	1.92	1.51	0.969	1.79	1.23	2.89	0	3.86	6.42	1.79	0	3.47	0	0	0	0	0	0	0	0	0	0	0	0	0
CO[C@H]1C[C@@H]2CC[C@@H](C)[C@@](O)(O2)C(=O)C(=O)N2CCCC[C@H]2C(=O)O[C@H]([C@H](C)C[C@@H]2CC[C@@H](OP(C)(C)=O)[C@H](OC)C2)CC(=O)[C@H](C)/C=C(\C)[C@@H](O)[C@@H](OC)C(=O)[C@H](C)C[C@H](C)/C=C/C=C/C=C/1C [Ridaforolimus]	8.23	7.76	12.7	0	0	4.31	12.4	1.18	8.38	9.58	6.61	8.4	0	0	0	4.09	0.968	0	0	0	0	0	0	0	12.6	0	0
COCC[n+]1c2c(n(Cc3cnccn3)c1C)C(=O)c1ccccc1C2=O [YM155]	35.2	35.3	41.9	35.3	37.8	27.1	25.8	40	39.2	18.8	28.4	42.3	23.5	29.5	12.2	27.2	30.1	3.34	34.7	20.2	28.2	33.6	42.2	5.6	30.2	29.4	11.4
